Results published in ChEMBL document CHEMBL4184256, “Synthesis and biological evaluation of longanlactone analogues as neurotrophic agents” (Bioorg Med Chem Lett, 2018).
Active and inactive are the calls of the source. The calls are words filed in the database; no cut-off is given here.

What was measured:
[1] = system: N2a; experiment: Neurotrophic activity in mouse Neuro2a cells assessed as increase in neurite length at 0.01 uM incubated for 48 hrs relative to untreated control; assay type: functional
[2] = system: N2a; experiment: Neurotrophic activity in mouse Neuro2a cells assessed as increase in neurite length at 0.1 uM incubated for 48 hrs relative to untreated control; assay type: functional
[3] = system: N2a; experiment: Cytotoxicity in mouse Neuro2a cells assessed as reduction in cell viability by MTT assay; assay type: cell-based
[4] = system: N2a; experiment: Neurotrophic activity in mouse Neuro2a cells assessed as increase in NT3 mRNA expression at 0.1 uM incubated for 2 hrs by RT-qPCR method relative to untreated control
[5] = system: N2a; experiment: Neurotrophic activity in mouse Neuro2a cells assessed as increase in BDNF mRNA expression at 0.1 uM incubated for 2 hrs by RT-qPCR method relative to untreated control
[6] = system: N2a; experiment: Neurotrophic activity in mouse Neuro2a cells assessed as increase in NT3 mRNA expression at 0.01 uM incubated for 2 hrs by RT-qPCR method relative to untreated control
[7] = system: N2a; experiment: Neurotrophic activity in mouse Neuro2a cells assessed as increase in BDNF mRNA expression at 0.01 uM incubated for 2 hrs by RT-qPCR method relative to untreated control

Compound | Activity [1] [%] | Activity [2] [%] | IC50 [3] [µM] | Activity [4] | Activity [5] | Activity [6] | Activity [7]
CC(=O)c1cccn1[C@H]1C[C@@H](Cc2cn([C@H]3C[C@H](n4cc(C)c(=O)[nH]c4=O)O[C@@H]3CO)nn2)OC1=O | 3.67 | 6.61 | 96.2 | – | – | – | –
C#CC[C@@H]1C[C@H](n2cccc2C(C)=O)C(=O)O1 | 8.03 | 37.01 | 121 | inactive | Active | – | –
CC(=O)c1cccn1[C@H]1C[C@H](CC#Cc2ccc([N+](=O)[O-])cc2)OC1=O | 1.43 | 13.27 | > 100 | – | – | – | –
C#CC[C@H]1C[C@H](n2cccc2C(C)=O)C(=O)O1 | 9.04 | 20.95 | > 100 | – | – | – | –
C#CC[C@H]1C[C@H](n2cccc2C(=O)C(F)(F)F)C(=O)O1 | 7.76 | 22.22 | 97.8 | – | – | – | –
C#CC[C@H]1C[C@H](n2cccc2)C(=O)O1 | 12.15 | 14.56 | > 100 | – | – | – | –
C#CC[C@@H]1C[C@H](n2cccc2C(=O)CC)C(=O)O1 | 11.63 | 9.47 | 40.6 | – | – | – | –
CC(=O)c1cccn1[C@H]1C[C@@H](Cc2cn(Cc3ccccc3)nn2)OC1=O | 5.41 | 15.62 | 91.6 | – | – | – | –
CC(=O)c1cccn1[C@H]1C[C@H](Cc2cn([C@H]3C[C@H](n4cc(C)c(=O)[nH]c4=O)O[C@@H]3CO)nn2)OC1=O | 9.52 | 14.8 | 95.8 | – | – | – | –
CC(=O)c1cccn1[C@H]1C[C@@H](CC#Cc2ccc([N+](=O)[O-])cc2)OC1=O | -7.58 | 9.11 | > 100 | – | – | – | –
C#CC[C@@H]1C[C@H](n2cccc2)C(=O)O1 | 6.56 | 10.9 | ≥ 100 | – | – | – | –
C#CC[C@@H]1C[C@H](n2cccc2C(=O)C(F)(F)F)C(=O)O1 | 33.74 | 41.02 | > 100 | – | – | inactive | Active
C#CC[C@H]1C[C@H](n2cccc2C(=O)CC)C(=O)O1 | 4.63 | 9.5 | 40.7 | – | – | – | –
CC(=O)c1cccn1[C@H]1C[C@H](Cc2cn(Cc3ccccc3)nn2)OC1=O | -2.23 | 17.02 | 66.9 | – | – | – | –
